# Assay results reported in ChEMBL document CHEMBL1201862, “PubChem BioAssay data set” (2004).
#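 Method: 48-hour compound exposure of cells in 96-well plates, five concentrations, linear interpolation of endpoints. GI50: concentration for 50% inhibition of growth.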 Activity calls are given as the source filed them. Cut-off read from the data, not from the text of the source: active = GI50 up to about 1.1 µM and inactive = higher.
# How the values were obtained:
# Assay in all cases: inhibition of tumour cell growth, NCI panel, 48 h
# HCT-116 = test system: HCT-116
# CCRF-CEM = test system: CCRF-CEM
# OVCAR-3 = test system: OVCAR-3
# LOX IMVI = test system: LOX IMVI
# SF-295 = test system: SF-295
# HL-60 = test system: HL-60
# HOP-62 = test system: HOP-62
# NCI-H522 = test system: NCI-H522
# EKVX = test system: EKVX
# Hs-578T = test system: Hs-578T
# SK-MEL-28 = test system: SK-MEL-28
# HCC 2998 = test system: HCC 2998
# SK-MEL-2 = test system: SK-MEL-2
# K562 = test system: K562
# UACC-257 = test system: UACC-257
# A498 = test system: A498
# SNB-19 = test system: SNB-19
# CAKI-1 = test system: CAKI-1
# RPMI-8226 = test system: RPMI-8226
# MOLT-4 = test system: MOLT-4
SMILES,GI50 (HCT-116),GI50 (CCRF-CEM),GI50 (OVCAR-3),GI50 (LOX IMVI),GI50 (SF-295),GI50 (HL-60),GI50 (HOP-62),GI50 (NCI-H522),GI50 (EKVX),GI50 (Hs-578T),GI50 (SK-MEL-28),GI50 (HCC 2998),GI50 (SK-MEL-2),GI50 (K562),GI50 (UACC-257),GI50 (A498),GI50 (SNB-19),GI50 (CAKI-1),GI50 (RPMI-8226),GI50 (MOLT-4)
S=C(N/N=C/c1ccccn1)N1CC2CCC(CC2)C1,< 0.01 µM (active),< 0.01 µM (active),< 0.01 µM (active),< 0.01 µM (active),< 0.0128 µM (active),< 0.01 µM (active),< 0.01 µM (active),< 0.01 µM (active),< 0.0395 µM (active),0.299 µM (active),0.0559 µM (active),0.0895 µM (active),< 0.0471 µM (active),< 0.01 µM (active),< 0.01 µM (active),0.119 µM (active),0.161 µM (active),< 0.01 µM (active),< 0.01 µM (active),< 0.01 µM (active)
CO/C(=N\N=C\c1cccc(C(F)(F)F)c1)c1ccncc1,5.52 µM (inactive),4.62 µM (inactive),10.7 µM (inactive),7.76 µM (inactive),1.76 µM (inactive),2.83 µM (inactive),2.93 µM (inactive),5.45 µM (inactive),13.8 µM (inactive),5.93 µM (inactive),24.3 µM (inactive),6.41 µM (inactive),2.89 µM (inactive),3.94 µM (inactive),14 µM (inactive),9.91 µM (inactive),9.08 µM (inactive),1.8 µM (inactive),2.37 µM (inactive),5.21 µM (inactive)
O=[N+]([O-])c1ccc(C(=S)Nc2ccccc2)o1,1.81 µM (inactive),2.45 µM (inactive),2.19 µM (inactive),2.29 µM (inactive),5.56 µM (inactive),2.1 µM (inactive),2.65 µM (inactive),1.34 µM (inactive),5.11 µM (inactive),3.71 µM (inactive),4.27 µM (inactive),1.69 µM (inactive),2.48 µM (inactive),0.938 µM (active),4.3 µM (inactive),18.1 µM (inactive),4.62 µM (inactive),4.11 µM (inactive),1.53 µM (inactive),1.26 µM (inactive)
COC(=O)C(/C(=N/N)C(=O)Nc1cccc(O)c1)c1nc2ccccc2nc1O (stereo not given),> 100 µM (inactive),> 10 µM (inactive),> 100 µM (inactive),> 100 µM (inactive),> 100 µM (inactive),> 100 µM (inactive),> 100 µM (inactive),> 100 µM (inactive),> 100 µM (inactive),> 100 µM (inactive),> 100 µM (inactive),> 100 µM (inactive),> 100 µM (inactive),> 100 µM (inactive),> 100 µM (inactive),> 100 µM (inactive),> 100 µM (inactive),> 100 µM (inactive),> 10 µM (inactive),> 100 µM (inactive)
C=CC(=O)NCCC(=O)OCn1cc(F)c(=O)[nH]c1=O,3.24 µM (inactive),16.7 µM (inactive),10.5 µM (inactive),4.34 µM (inactive),15.5 µM (inactive),0.425 µM (active),4.98 µM (inactive),9.4 µM (inactive),10.4 µM (inactive),> 100 µM (inactive),32.2 µM (inactive),0.369 µM (active),7.93 µM (inactive),9.66 µM (inactive),7.11 µM (inactive),0.456 µM (active),39.4 µM (inactive),3.2 µM (inactive),1.75 µM (inactive),6.01 µM (inactive)
COc1ccc(CCNC(=O)CCc2ccccc2CO)cc1OC,> 100 µM (inactive),> 100 µM (inactive),> 100 µM (inactive),,> 100 µM (inactive),> 100 µM (inactive),> 100 µM (inactive),> 100 µM (inactive),> 100 µM (inactive),> 100 µM (inactive),> 100 µM (inactive),> 100 µM (inactive),> 100 µM (inactive),> 100 µM (inactive),> 100 µM (inactive),> 100 µM (inactive),> 100 µM (inactive),> 100 µM (inactive),> 100 µM (inactive),> 100 µM (inactive)
O=c1cnn(C/C=C/CO)c(=O)[nH]1,,> 100 µM (inactive),> 100 µM (inactive),28.3 µM (inactive),,> 100 µM (inactive),> 100 µM (inactive),> 100 µM (inactive),> 100 µM (inactive),> 100 µM (inactive),> 100 µM (inactive),> 100 µM (inactive),> 100 µM (inactive),> 100 µM (inactive),> 100 µM (inactive),> 100 µM (inactive),> 100 µM (inactive),> 100 µM (inactive),> 100 µM (inactive),
COc1cc(/C=C/c2cc(=O)cc(/C=C/c3ccc(O)c(OC)c3)o2)ccc1O,> 55.5 µM (inactive),0.324 µM (active),76.4 µM (inactive),29.6 µM (inactive),32.4 µM (inactive),15.7 µM (inactive),22 µM (inactive),9.79 µM (inactive),> 70 µM (inactive),24.4 µM (inactive),> 100 µM (inactive),13.6 µM (inactive),41.2 µM (inactive),> 21 µM (inactive),> 100 µM (inactive),> 100 µM (inactive),> 92 µM (inactive),64.3 µM (inactive),1.1 µM (active),
CCCCc1ccc(Nc2nc(N)c3ncn(COCCO)c3n2)cc1,26.9 µM (inactive),26.4 µM (inactive),16.6 µM (inactive),18.9 µM (inactive),19.8 µM (inactive),36.3 µM (inactive),17.1 µM (inactive),26.1 µM (inactive),41.4 µM (inactive),36.8 µM (inactive),,27.2 µM (inactive),17 µM (inactive),7.01 µM (inactive),21.3 µM (inactive),28.2 µM (inactive),48.9 µM (inactive),38.7 µM (inactive),30.6 µM (inactive),33 µM (inactive)
CCOC(=O)CC1c2ccc(O)cc2OC(=O)C1c1ccc(N)cc1 (stereo not given),> 100 µM (inactive),> 100 µM (inactive),> 100 µM (inactive),> 100 µM (inactive),> 100 µM (inactive),,4.34 µM (inactive),86.7 µM (inactive),> 100 µM (inactive),66.1 µM (inactive),> 100 µM (inactive),> 100 µM (inactive),> 100 µM (inactive),> 100 µM (inactive),> 100 µM (inactive),> 100 µM (inactive),> 100 µM (inactive),> 100 µM (inactive),> 100 µM (inactive),> 100 µM (inactive)
COc1cc([C@@H]2c3cc4c(cc3[C@@H](c3c(O)cc(O)c5c3O[C@H](c3ccc(O)c(O)c3)[C@H](OC(=O)c3cc(O)c(O)c(O)c3)C5)[C@H]3COC(=O)[C@H]23)OCO4)cc(OC)c1O,23.7 µM (inactive),24.4 µM (inactive),28.2 µM (inactive),29.2 µM (inactive),39.3 µM (inactive),19.5 µM (inactive),51.8 µM (inactive),24 µM (inactive),44.7 µM (inactive),96.4 µM (inactive),79.8 µM (inactive),33.8 µM (inactive),57.9 µM (inactive),,> 100 µM (inactive),74.5 µM (inactive),30.1 µM (inactive),76.6 µM (inactive),26.6 µM (inactive),33.7 µM (inactive)
CC[C@@]1(O)C(=O)OCc2c1cc1n(c2=O)Cc2c-1nc1ccccc1c2CC[Si](C)(C)C [COSITECAN],< 0.01 µM (active),,0.0604 µM (active),< 0.01 µM (active),< 0.01 µM (active),< 0.01 µM (active),< 0.01 µM (active),< 0.01 µM (active),0.0671 µM (active),7.73 µM (inactive),,< 0.01 µM (active),0.053 µM (active),0.0101 µM (active),< 0.0391 µM (active),< 0.01 µM (active),< 0.01 µM (active),< 0.01 µM (active),< 0.01 µM (active),< 0.01 µM (active)
CC(=O)O[C@H]1CC[C@@]2(C)C(=CC[C@@H]3[C@@H]2CC[C@]2(C)Nc4c(cnn4S(C)(=O)=O)C[C@@H]32)C1,,37.2 µM (inactive),48 µM (inactive),,62.2 µM (inactive),23.4 µM (inactive),89.9 µM (inactive),41.1 µM (inactive),,62.4 µM (inactive),> 100 µM (inactive),> 100 µM (inactive),> 100 µM (inactive),19.1 µM (inactive),,> 100 µM (inactive),> 100 µM (inactive),49.9 µM (inactive),32.3 µM (inactive),20.1 µM (inactive)
CC(NC(=O)C(NC(=O)C(NC(=O)C(F)(F)F)C(C)C)C(C)C)C(=O)Oc1c(Cl)c(Cl)c(Cl)c(Cl)c1Cl (stereo not given),> 100 µM (inactive),> 100 µM (inactive),92.5 µM (inactive),> 100 µM (inactive),,> 100 µM (inactive),> 100 µM (inactive),85.5 µM (inactive),> 100 µM (inactive),> 100 µM (inactive),> 100 µM (inactive),> 100 µM (inactive),> 100 µM (inactive),> 100 µM (inactive),> 100 µM (inactive),> 100 µM (inactive),> 100 µM (inactive),> 100 µM (inactive),> 100 µM (inactive),> 100 µM (inactive)
